Results on seven compounds are retold here after patent publication US10022374B2, “Certain protein kinase inhibitors” (Shanghai Fochon Pharmaceutical Co., Ltd., priority 2013, dated 2018).

For one experiment, the system named is HT-29 cells. As to the kind of experiment: Inhibition of cell proliferation (MTS), HT-29 cells. The following applies: Homo sapiens, HT-29, 72 h. The format is cell-based. Put shortly:
(§1)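 Cells were seeded at 3000/well (A-375, DMEM) or 5000/well (HT-29, RPMI-1640), each with 10% FBS, and allowed to adhere overnight. Proliferation was measured by MTS absorbance at 490 nm after 2 h, and IC50 was derived from the curves.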

The test system of the next experiment is A-375 cells. Nature of the experiment: Inhibition of cell proliferation (MTS), A-375 cells. The format is cell-based. As to conditions: Homo sapiens, A-375, 72 h. The gist of the method:
as §1

Where [1] appears, read: HT-29 cells, 5000 cells/well, 72 h, MTS, absorbance 490 nm, read-out: HT29 IC50.
The mark [2] stands for this setting: A-375 cells, 3000 cells/well, 72 h, MTS, absorbance 490 nm, read-out: A375 IC50.

Read-outs that look alike come from different tables or passages of the source.

Usually IC50 stands for the concentration that inhibits the measured activity by half. Take `CC(C)S(=O)(=O)N(C)c1cccc(-c2nn(C)c(=O)c3c(Nc4ccc(I)cc4F)c(F)c(=O)n(C)c23)c1` [Example 51, N-(3-(3-fluoro-4-((2-fluoro-4-iodophenyl)amino)-1,6-dimethyl-2,5-dioxo-1,2,5,6-tetrahydropyrido[2,3-d]pyridazin-8-yl)phenyl)-N-methylpropane-2-sulfonamide]: the IC50 with HT-29 cells (read-out: HT29 IC50 (nM)) came out at 2 nM; with A-375 cells (read-out: A375 IC50 (nM)), 2.2 nM.

For `CN(c1cccc(-c2nn(C)c(=O)c3c(Nc4ccc(I)cc4F)c(F)c(=O)n(C)c23)c1)S(=O)(=O)C1CC1` [Example 52, N-(3-(3-fluoro-4-((2-fluoro-4-iodophenyl)amino)-1,6-dimethyl-2,5-dioxo-1,2,5,6-tetrahydropyrido[2,3-d]pyridazin-8-yl)phenyl)-N-methylcyclopropanesulfonamide], the figures for the IC50 in the experiment with HT-29 cells (setting [1]) and in the experiment on A-375 cells (setting [2]) were 7.8 nM and 5.7 nM, respectively.

For `Cn1c(=O)c(F)c(Nc2ccc(I)cc2F)c2c(=O)n(C3CC3)nc(-c3cccc(N4CCCC4=O)c3)c21` [Example 53, 6-cyclopropyl-3-fluoro-4-((2-fluoro-4-iodophenyl)amino)-1-methyl-8-(3-(2-oxopyrrolidin-1-yl)phenyl)pyrido[2,3-d]pyridazine-2,5(1H,6H)-dione], the IC50 with HT-29 cells (setting [1]) amounted to 19.1 nM; with A-375 cells (setting [2]) it was 7.8 nM.

As for `Cn1nc(-c2cccc(N3CCCC3=O)c2)c2c(c(Nc3ccc(I)cc3F)c(F)c(=O)n2C)c1=O` [Example 54, 3-fluoro-4-((2-fluoro-4-iodophenyl)amino)-1,6-dimethyl-8-(3-(2-oxopyrrolidin-1-yl)phenyl)pyrido[2,3-d]pyridazine-2,5(1H,6H)-dione], the IC50 was 7.9 nM in the experiment with HT-29 cells (read-out: HT29 IC50 (nM)) and 4.7 nM with A-375 cells (read-out: A375 IC50 (nM)).

`Cn1c(=O)c(F)c(Nc2ccc(I)cc2F)c2c(=O)n(C3CC3)nc(-c3cccc(N4CCCS4(=O)=O)c3)c21` [Example 55, 6-cyclopropyl-8-(3-(1,1-dioxidoisothiazolidin-2-yl)phenyl)-3-fluoro-4-((2-fluoro-4-iodophenyl)amino)-1-methylpyrido[2,3-d]pyridazine-2,5(1H,6H)-dione]: the IC50 in the experiment on HT-29 cells (setting [1]) turned out to be 18.7 nM; in the experiment on A-375 cells (setting [2]), 8.8 nM.

For `Cn1nc(-c2cccc(N3CCCS3(=O)=O)c2)c2c(c(Nc3ccc(I)cc3F)c(F)c(=O)n2C)c1=O` [Example 56, 8-(3-(1,1-dioxidoisothiazolidin-2-yl)phenyl)-3-fluoro-4-((2-fluoro-4-iodophenyl)amino)-1,6-dimethylpyrido[2,3-d]pyridazine-2,5(1H,6H)-dione], the values for the IC50 in the experiment with HT-29 cells (setting [1]) and in the experiment on A-375 cells (setting [2]) were 14.1 nM and 9.3 nM, respectively.

For the compound `Cc1ccc(Nc2c(C)c(=O)n(C)c3c(C)n[nH]c(=O)c23)c(F)c1` [Reference Compound, 4-((2-fluoro-4-methylphenyl)amino)-1,3,8-trimethylpyrido[2,3-d]pyridazine-2,5(1H,6H)-dione, reference compound], the IC50 with HT-29 cells (setting [1]) and with A-375 cells (setting [2]) was > 1000 nM each time.
